{"source": "patent US20120177693A1", "about": "“DEEP LUNG PULMONARY DELIVERY OF TREPROSTINIL” (Aradigm Corporation, priority 2008, published 2012)", "assay": "Venous plasma pharmacokinetics of inhaled treprostinil via AERx Essence or Nebu-Tec Optineb, 14 healthy male subjects", "settings": "for AUC(0-inf): AUCINF—obs (AUCI); for half-life: T1/2 (elimination half life); for Dose-normalised AUCI / Dose-normalised AUCT / Dose-normalised Cmax: dose-normalised for the calculated dose to lung (μg); for AUCINF_obs_D (dose normalised AUCI) / AUClast_D (dose normalised AUCT) / Cmax_D (dose normalised Cmax): normalised for dose to lung", "description": "On each of two dosing days, eligible subjects underwent dosing with ^99mTc-labeled treprostinil sodium using either the AERx Essence System or the Nebu-Tec Optineb nebulizer. Following their initial study dose, subjects underwent a washout period of approximately 48 hours before completing a second (crossover) study dose.\nImmediately following each study dose, subjects underwent gamma scintigraphy and multiple samplings of venous blood to characterize treprostinil lung deposition and plasma pharmacokinetics.\nTo evaluate treprostinil plasma pharmacokinetics, 16 venous blood samples were drawn into 7.5 ml Potassium EDTA monovette tubes following each study dose (i.e., Essence and Optineb). Sampling occurred approximately 1 hour prior to dosing and at +2, +3, +5, +7, +10, +15, +20, +30, +60, +90, +120, +180, +240, +300, and +360 minutes after the start of each study dose. Thus, a total of 32 blood samples (˜250 mL) were collected for pharmacokinetic assessment over the two dosing days. Immediately upon sampling the sample was identified with a bar coded label bearing details of study number, subject number, sampling time point, sample type and a unique 9 digit identification number. The sample was separated by centrifugation at 1500×g and 4° C. for 10 minutes. Two equal aliquots of plasma/serum were transferred to 2 polypropylene tubes labelled identically to the original blood sample and stored at approximately −20° C. pending analysis. The time at which samples were taken, received into the separating room and placed in the freezer was recorded in the study documentation.\nThe pharmacokinetic parameters Cmax, AUCT and AUCI were normalised for the dose delivered to the lung, as determined from the scintigraphy data (Tables 14.2.1.5 & 14.2.1.6).", "key": {"[1]": {"settings": "male, human, plasma, inhaled, 2 AERx strips, via AERx, Mean"}, "[2]": {"settings": "male, human, plasma, inhaled, 6 puffs, via Optineb, Mean"}, "[3]": {"settings": "via Nebu-Tec, Geometric LS means"}}, "data": [{"smiles": "CCCCC[C@H](O)CC[C@@H]1[C@H]2Cc3cccc(OCC(=O)[O-])c3C[C@H]2C[C@H]1O.[Na+]", "note": "[treprostinil, (1R,2R,3aS,9aS)-[[2,3,3a,4,9,9a-Hexahydro-2-hydroxyl-1-[(3S)-3-hydroxyoctyl]-1H-benz[f]inden-5-yl]oxy]acetic acid monosodium salt]", "values": [{"measurement": "Tmax", "setting": "male, human, plasma, inhaled, 26 μg, Tmax, via AERx, Median", "value": 25, "unit": "min"}, {"measurement": "AUC", "setting": "male, human, plasma, inhaled, 26.07 μg", "value": 0.73, "unit": "ng·h/mL"}, {"measurement": "AUC(0-t)", "setting": "male, human, plasma, inhaled, 26.07 μg, AUCT, via AERx, Geometric LS means", "value": 0.71, "unit": "ng·h/mL"}, {"measurement": "Cmax", "setting": "male, human, plasma, inhaled, 26.07 μg, Cmax, via AERx, Geometric LS means", "value": 0.59, "unit": "ng/mL"}, {"measurement": "Tmax", "setting": "male, human, plasma, inhaled, 26.07 μg, Tmax, via AERx, Median", "value": 25, "unit": "min"}, {"measurement": "Vd/F", "setting": "male, human, plasma, inhaled, 2 AERx strips", "value": 44, "unit": "L"}, {"measurement": "AUC(0-inf)", "setting": "[1]", "value": 0.762, "unit": "ng·h/mL"}, {"measurement": "AUC(0-t)", "setting": "male, human, plasma, inhaled, 2 AERx strips, AUClast (AUCT), via AERx, Mean", "value": 0.742, "unit": "ng·h/mL"}, {"measurement": "Cmax", "setting": "male, human, plasma, inhaled, 2 AERx strips, Cmax, via AERx, Mean", "value": 0.64, "unit": "ng/mL"}, {"measurement": "half-life", "setting": "[1]", "value": 52.2, "unit": "min"}, {"measurement": "Tmax", "setting": "male, human, plasma, inhaled, 2 AERx strips, Tmax, via AERx, Mean", "value": 20.6, "unit": "min"}, {"measurement": "Vd/F", "setting": "male, human, plasma, inhaled, 6 puffs", "value": 36, "unit": "L"}, {"measurement": "AUC(0-inf)", "setting": "[2]", "value": 0.553, "unit": "ng·h/mL"}, {"measurement": "AUC(0-t)", "setting": "male, human, plasma, inhaled, 6 puffs, AUClast (AUCT), via Optineb, Mean", "value": 0.531, "unit": "ng·h/mL"}, {"measurement": "Cmax", "setting": "male, human, plasma, inhaled, 6 puffs, Cmax, via Optineb, Mean", "value": 0.762, "unit": "ng/mL"}, {"measurement": "half-life", "setting": "[2]", "value": 40.1, "unit": "min"}, {"measurement": "Tmax", "setting": "male, human, plasma, inhaled, 6 puffs, Tmax, via Optineb, Mean", "value": 8.94, "unit": "min"}, {"measurement": "Tmax", "setting": "male, human, plasma, inhaled, TMAX, via AERx Essence System, mean", "value": 21, "unit": "min"}, {"measurement": "Tmax", "setting": "male, human, plasma, inhaled, TMAX, via nebulizer (Nebu-Tec OPTINEB), mean", "value": 9, "unit": "min"}, {"measurement": "AUCI, AERx/Nebu-Tec Ratio of geometric LS means", "setting": "not dose adjusted", "value": 137.15, "unit": "%"}, {"measurement": "AUCT, AERx/Nebu-Tec Ratio of geometric LS means", "setting": "not dose adjusted", "value": 139.11, "unit": "%"}, {"measurement": "Cmax, AERx/Nebu-Tec Ratio of geometric LS means", "setting": "not dose adjusted", "value": 82.88, "unit": "%"}, {"measurement": "Cmax_D", "setting": "via AERx, GM", "value": 0.023, "unit": "ng/mL/µg"}, {"measurement": "Vz_F_obs", "setting": "via AERx, GM", "value": 38614.996, "unit": "mL"}, {"measurement": "Dose-normalised AUCI", "setting": "via AERx, Geometric LS means", "value": 0.029, "unit": "ng·h/mL"}, {"measurement": "Dose-normalised AUCT", "setting": "via AERx, Geometric LS means", "value": 0.028, "unit": "ng·h/mL"}, {"measurement": "Dose-normalised Cmax", "setting": "via AERx, Geometric LS means", "value": 0.023, "unit": "ng/mL"}, {"measurement": "AUCINF—obs", "setting": "via AERx, Max", "value": 1.205, "unit": "ng·h/mL"}, {"measurement": "AUClast", "setting": "via AERx, Max", "value": 1.196, "unit": "ng·h/mL"}, {"measurement": "Cmax", "setting": "via AERx, Max", "value": 1.347, "unit": "ng/mL"}, {"measurement": "Cmax_D", "setting": "via AERx, Max", "value": 0.044, "unit": "ng/mL/µg"}, {"measurement": "T1/2", "setting": "via AERx, Max", "value": 163.9, "unit": "min"}, {"measurement": "Tmax", "setting": "via AERx, Max", "value": 30, "unit": "min"}, {"measurement": "Vz_F_obs", "setting": "via AERx, Max", "value": 133550.416, "unit": "mL"}, {"measurement": "AUCINF_obs_D (dose normalised AUCI)", "setting": "via AERx, Mean", "value": 0.029, "unit": "ng·h/mL/µg"}, {"measurement": "AUClast_D (dose normalised AUCT)", "setting": "via AERx, Mean", "value": 0.028, "unit": "ng·h/mL/µg"}, {"measurement": "Cmax_D (dose normalised Cmax)", "setting": "via AERx, Mean", "value": 0.024, "unit": "ng/mL/µg"}, {"measurement": "Cmax_D", "setting": "via AERx, Median", "value": 0.022, "unit": "ng/mL/µg"}, {"measurement": "Vz_F_obs", "setting": "via AERx, Median", "value": 34319.392, "unit": "mL"}, {"measurement": "AUCINF—obs", "setting": "via AERx, Min", "value": 0.407, "unit": "ng·h/mL"}, {"measurement": "AUClast", "setting": "via AERx, Min", "value": 0.375, "unit": "ng·h/mL"}, {"measurement": "Cmax", "setting": "via AERx, Min", "value": 0.299, "unit": "ng/mL"}, {"measurement": "Cmax_D", "setting": "via AERx, Min", "value": 0.016, "unit": "ng/mL/µg"}, {"measurement": "T1/2", "setting": "via AERx, Min", "value": 28.3, "unit": "min"}, {"measurement": "Tmax", "setting": "via AERx, Min", "value": 7.02, "unit": "min"}, {"measurement": "Vz_F_obs", "setting": "via AERx, Min", "value": 21692.705, "unit": "mL"}, {"measurement": "Dose-normalised AUCI", "setting": "[3]", "value": 0.028, "unit": "ng·h/mL"}, {"measurement": "Dose-normalised AUCT", "setting": "[3]", "value": 0.027, "unit": "ng·h/mL"}, {"measurement": "Dose-normalised Cmax", "setting": "[3]", "value": 0.037, "unit": "ng/mL"}, {"measurement": "Cmax_D", "setting": "via Optineb, GM", "value": 0.037, "unit": "ng/mL/µg"}, {"measurement": "Vz_F_obs", "setting": "via Optineb, GM", "value": 32721.114, "unit": "mL"}, {"measurement": "AUCINF—obs", "setting": "via Optineb, Max", "value": 0.852, "unit": "ng·h/mL"}, {"measurement": "AUClast", "setting": "via Optineb, Max", "value": 0.816, "unit": "ng·h/mL"}, {"measurement": "Cmax", "setting": "via Optineb, Max", "value": 1.559, "unit": "ng/mL"}, {"measurement": "Cmax_D", "setting": "via Optineb, Max", "value": 0.069, "unit": "ng/mL/µg"}, {"measurement": "T1/2", "setting": "via Optineb, Max", "value": 66.42, "unit": "min"}, {"measurement": "Tmax", "setting": "via Optineb, Max", "value": 20, "unit": "min"}, {"measurement": "Vz_F_obs", "setting": "via Optineb, Max", "value": 92051.057, "unit": "mL"}, {"measurement": "AUCINF_obs_D (dose normalised AUCI)", "setting": "via Optineb, Mean", "value": 0.030, "unit": "ng·h/mL/µg"}, {"measurement": "AUClast_D (dose normalised AUCT)", "setting": "via Optineb, Mean", "value": 0.029, "unit": "ng·h/mL/µg"}, {"measurement": "Cmax_D (dose normalised Cmax)", "setting": "via Optineb, Mean", "value": 0.041, "unit": "ng/mL/µg"}, {"measurement": "Cmax_D", "setting": "via Optineb, Median", "value": 0.037, "unit": "ng/mL/µg"}, {"measurement": "Vz_F_obs", "setting": "via Optineb, Median", "value": 32525.036, "unit": "mL"}, {"measurement": "AUCINF—obs", "setting": "via Optineb, Min", "value": 0.360, "unit": "ng·h/mL"}, {"measurement": "AUClast", "setting": "via Optineb, Min", "value": 0.315, "unit": "ng·h/mL"}, {"measurement": "Cmax", "setting": "via Optineb, Min", "value": 0.312, "unit": "ng/mL"}, {"measurement": "Cmax_D", "setting": "via Optineb, Min", "value": 0.017, "unit": "ng/mL/µg"}, {"measurement": "T1/2", "setting": "via Optineb, Min", "value": 25.6, "unit": "min"}, {"measurement": "Tmax", "setting": "via Optineb, Min", "value": 4.98, "unit": "min"}, {"measurement": "Vz_F_obs", "setting": "via Optineb, Min", "value": 16866.083, "unit": "mL"}]}]}
